Consider five molecules from US20090176773A1, “Non-Peptidic Inhibitors of AKAP/PKA Interaction” (FORSCHUNGSVERBUND BERLIN E.V., priority 2005, published 2009).

“Also recorded” adds a separate entry of the source.

Assay [1] concerns the target AKAP18delta-RIIalpha interaction (GST-AKAP18delta binding to plate-bound PKA-RIIalpha) (Rattus norvegicus, UniProt P12368+Q6JP77). The experiment in a line: ELISA for quantitative detection of protein-protein binding between PKA-RIIalpha and GST-AKAP18delta (library screening, validation, IC50). The text has this: (§1) ELISA is a method wherein an antigen is detected with a specific antibody. Detection proceeds via an enzyme linked covalently with one of the binding partners, which enzyme catalyzes chromogen conversion.
(§2) Because one of the two binding partners is immobilized, removal of unbound antibodies or antigens is very easy. Detection proceeds via observing the intensity (I) of chemiluminescence using a photomultiplier in a special reading device (ELISA reader). The output of the measured values is in relative light units (RLU).
(§3) In the present case, the point was to investigate whether binding of one protein (PKA) to another (AKAP18delta-GST) would be inhibited by the presence of small organic molecules. A sandwich ELISA was therefore developed wherein the RIIalpha PKA subunit, to which AKAP proteins bind, was bound on 384-well microtiter plates (MTP).
(§4) The white color improves detection by reflection of the chemiluminescence being formed and simultaneously prevents illumination of neighboring wells. Free binding sites were blocked after binding (see below), and the second GST-AKAP18delta protein was added to […]. Subsequently, bound GST-AKAP18delta was quantified via antibodies and chemiluminescence. The principle of ELISA is illustrated in FIG. 4.
(§5) PBS (phosphate-buffered saline, pH 7.4) was used as buffer system to maintain a physiological pH value for the proteins used. The buffer was added with a mix of protease inhibitors and PMSF as non-specific protease inhibitor to delay protein degradation. In addition, DTT was employed to protect the proteins from oxidation.
(§6) The blocking solution additionally included 0.3% skim milk powder to saturate MTP non-specific binding sites with milk proteins included therein.
(§7) To adapt the binding curves to the measured values (see results), the one-site binding model was used as a basis, which model applies to binding of GST-AKAP18delta to RIIalpha. The corresponding formula is
(§8) The measured values for IC50 calculation were adapted to the one-site competition model. It was established that the bottom asymptote should be greater than 0.0 to rule out faulty adaptations with negative binding values. The formula used is
(§9) The FMP20000 substance library was used for screening, i.e., systematic, partially automated search for potential inhibitors of AKAP18delta-RIIalpha binding. […] The substances of the library had been selected according to specific criteria which also apply to previously known pharmacological active substances. Said criteria also include Lipinski's Rule (cf. discussion). To prepare an MTP for screening, each of 380 wells was filled with 20 μl of RIIalpha solution with a concentration of 0.75 ng/μl (in binding buffer), using an electronically controlled 24-channel pipette (Eppendorf). […] Following centrifugation of the MTPs (1 min at 2500×g), the MTPs were incubated at room temperature for at least 1 h. After removing the protein solution by tapping on a paper stack, non-specific binding sites were blocked with 100 μl of blocking solution/well for at least 1 h at room temperature.
(§10) After completion of the washing operation, solution residues possibly still present were tapped off on a paper stack.
(§11) In the next step, the MTPs were prepared for automated pipetting of the low-molecular weight substances. Each well was supplied with 10 μl of blocking solution or controls pipetted in accordance with the pipetting scheme (Table 1.2). […] The plates were briefly centrifuged.
(§12) Each of the control columns 1 and 24 received 0.5 μl of DMSO, so that the controls were added with the same amount of DMSO as the other samples.
(§13) Following centrifugation of the screening MTPs, AKAP18delta-GST (8 ng/μl in blocking solution) was added in accordance with the pipetting scheme (Table 2.2), centrifuged, and incubated for at least 30 min at room temperature.

Assay [2] deals with T1, AKAP18delta-RIIalpha interaction (GST-AKAP18delta binding to plate-bound PKA-RIIalpha) (UniProt P13861+Q6JP77).
T1 construct: made in house; host or cells: E. coli BL21(DE3), pGEX-4T3 vector (GST-AKAP18delta only)
Described as above. As to conditions: increasing peptide concentrations, FIG. 11.
From the text: as §1, §2, §3, §4, §5, §6, §7, §8, §9, §10, §11, §12, §13

In assay [3] the test system is vasopressin (AVP)-dependent redistribution of the aquaporin-2 (AQP2) water channel in renal principal cells (IMCD cells). The experiment in a line: AVP-induced redistribution of AQP2 in primarily cultured IMCD cells (immunofluorescence, laser scanning microscope). It is filed as cell-based, rat. Conditions: FIG. 18 and 21. The method, then: Initially, collecting duct cells from the inner medulla of rat kidneys (IMCD cells) can be stimulated with AVP in the presence or absence of the substances so as to stimulate AQP2 translocation. Thereafter, immunofluorescence staining can be performed, wherein the cells—following incubation—are fixed and made permeable. Using antibodies coupled to fluorescent dyes, the intracellular localization of AQP2 can subsequently be determined under a fluorescence microscope. In this way it is possible to investigate the influence of the substances on the presumably AKAP18delta-dependent translocation of AQP2.
Inhibition of the vasopressin (AVP)-dependent redistribution of the aquaporin-2 (AQP2) water channel in renal principal cells by the substances specified (see Table B; concentrations of inhibitors in μM). Primarily cultured principal cells from the inner medulla of rat kidneys (IMCD cells) represent a model for the AVP-induced translocation of AQP2. Said redistribution is the molecular basis of AVP-induced water reabsorption in the kidneys. AQP2 was detected by means of a specific antiserum and Cy3-labelled secondary antibodies in untreated cells (control) and in cells treated with AVP or substances, using a laser scanning microscope (Tamma et al., 2003; Henn et al., 2004).
Effect of the low-molecular weight substances 18882, 990 and 990 derivatives SM61 and SM65 on AVP-induced redistribution of AQP2 in IMCD cells (see FIG. 18). The structures and chemical properties of the substances are illustrated in Tables A, B and C (concentrations of inhibitors in μM). AQP2 was detected by means of a specific antiserum and Cy3-labelled secondary antibodies in untreated cells (control) and in cells treated with AVP or substances, using a laser scanning microscope (Tamma et al., 2003; Henn et al., 2004). […] In contrast, the substances 18882 and the 990 derivative SM65 have no influence on AVP-induced AQP2 redistribution at the concentrations used.

Assay [4] concerns the target T2, interaction of AKAP18delta with regulatory RIIalpha subunits of PKA in IMCD cells (Rattus norvegicus, UniProt P12368+Q6JP77).
T2 construct: endogenous in cells; host or cells: primary cultured rat IMCD cells
Briefly: cAMP agarose precipitation, Western blot and RII overlay in IMCD cells. It is filed as cell-based. As to conditions: 100 μM, 30 min, FIG. 22. How it is done:
The substance (see Tables A, B and D) was identified by screening a substance library comprising 20,064 compounds, using the ELISA-based test array illustrated in FIG. 17. Primarily cultured IMCD cells either remained untreated (control) or were incubated for 30 min with substance 990 (100 μM) or with cAMP as negative control. Subsequently, the cells were lysed and subjected to cAMP agarose precipitation (Henn et al., JBC 279, 26654, 2004).
A: AKAP18delta was detected in the lysates and in the cAMP agarose precipitates (cAMP agarose) using the AKAP18delta-specific antibody A18delta4 in a Western blot (Henn et al., 2004). cAMP was added to the batch as negative control. As a result, binding of regulatory subunits of PKA to the cAMP agarose was inhibited in a competitive fashion. For this reason, no AKAPs are precipitated and, as a consequence, AKAP18delta cannot be detected in this sample. AKAP18delta produced in a recombinant fashion was used as positive control.
B: To detect the AKAPs in the lysates and cAMP agarose precipitates, an RII overlay was carried out (Henn et al., JBC 279, 26654, 2004). AKAP18delta produced in a recombinant fashion was detected as positive control. AKAP18delta is indicated by arrows in A and B.
In general terms: A western blot detects proteins with antibodies after separation by electrophoresis.

In assay [5] the target is T3, interaction of AKAP18delta with regulatory RIIalpha subunits of PKA in myocardial cells (Rattus norvegicus, UniProt P12368+Q6JP77).
T3 construct: endogenous in cells; host or cells: primary cultured neonatal (rat) myocardial cells
The experiment in a line: cAMP agarose precipitation, Western blot and RII overlay in neonatal myocardial cells. It is filed as cell-based. As to conditions: 100 μM, 30 min, FIG. 23. The method, then: In contrast, substance 990 has no influence on this interaction. The substances (see Tables A, B and D) were identified by screening a substance library comprising 20,064 compounds, using the ELISA-based test array illustrated in FIG. 17. Primarily cultured neonatal myocardial cells either remained untreated (control) or were incubated for 30 min with the substances 990, 18882 (100 μM each time) or with cAMP as negative control. Subsequently, the cells were lysed and subjected to cAMP agarose precipitation (Henn et al., JBC 279, 26654, 2004). A: AKAP18delta was detected in the lysates and in the cAMP agarose precipitates (cAMP agarose), using the AKAP18delta-specific antibody A18delta4 in a Western blot (Henn et al., JBC 279, 26654, 2004). cAMP was added to the batch as negative control. As a result, binding of regulatory subunits of PKA to the cAMP agarose was inhibited in a competitive fashion. For this reason, no AKAPs are precipitated and, as a consequence, AKAP18delta cannot be detected in this sample. AKAP18delta produced in a recombinant fashion was used as positive control. B: Using Western blotting, regulatory RIIbeta subunits of PKA were detected in the same samples as specified in A. As expected, no RIIbeta is detected in the sample containing cAMP (see A.). […] AKAP18delta produced in a recombinant fashion was detected as positive control.

For assay [6], the system named is L-type Ca^2+ channel currents. Briefly: Patch-clamp measurement of L-type Ca2+ channel currents in neonatal rat myocardial cells. Type of assay: cell-based. Conditions: isoproterenol 1 μM stimulation, FIG. 24. The text has this:
Another experiment is measurement of the Ca^2+ currents through L-type Ca^2+ channels in primarily cultured myocardial cells from neonatal rats using the patch clamp technique. To this effect, membrane sections of a single cell are fixed by a buffer-filled glass capillary, and a constant voltage is applied across the membrane. A current pulse can trigger a measurable increase of the Ca^2+ current through the voltage-dependent L-type Ca^2+ channels situated in the fixed membrane region.
After stimulating the cells with the non-specific β-adrenoreceptor agonist isoproterenol, an increase of the Ca^2+ channel current is to be expected because receptor activation triggers the AKAP18alpha-dependent signal cascade described in section 3.3. As a result, the L-type Ca^2+ channel is phosphorylated, thereby increasing its open probability. Such measurements can be performed in the presence or absence of the substances, so that the effect on the signaling pathway can be quantified indirectly via the currents being measured.
L-type Ca^2+ channel currents were measured in neonatal rat myocardial cells using the patch-clamp technique. The cells were held at −70 mV and repeatedly depolarized to a test potential of 0 mV (after an increase to −35 mV for 400 ms). […] Currents were measured 400 s after the whole cell configuration had established. […]

Sequence of AKAP18delta-RIIalpha interaction (GST-AKAP18delta binding to plate-bound PKA-RIIalpha) (Rattus norvegicus, UniProt P12368+Q6JP77) (P12368 2-401): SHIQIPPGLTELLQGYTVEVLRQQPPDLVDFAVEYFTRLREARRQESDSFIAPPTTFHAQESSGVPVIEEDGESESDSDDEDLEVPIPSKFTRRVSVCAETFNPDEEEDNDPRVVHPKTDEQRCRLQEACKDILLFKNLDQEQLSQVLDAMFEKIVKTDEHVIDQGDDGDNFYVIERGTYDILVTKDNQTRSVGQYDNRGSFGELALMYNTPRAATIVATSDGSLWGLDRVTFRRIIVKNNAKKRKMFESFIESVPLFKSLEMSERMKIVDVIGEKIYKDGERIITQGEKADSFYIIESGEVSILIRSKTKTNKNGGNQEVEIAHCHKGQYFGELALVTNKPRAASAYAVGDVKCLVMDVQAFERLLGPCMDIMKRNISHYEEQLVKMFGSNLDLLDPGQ
Sequence of AKAP18delta-RIIalpha interaction (GST-AKAP18delta binding to plate-bound PKA-RIIalpha) (Rattus norvegicus, UniProt P12368+Q6JP77) (Q6JP77 whole entry): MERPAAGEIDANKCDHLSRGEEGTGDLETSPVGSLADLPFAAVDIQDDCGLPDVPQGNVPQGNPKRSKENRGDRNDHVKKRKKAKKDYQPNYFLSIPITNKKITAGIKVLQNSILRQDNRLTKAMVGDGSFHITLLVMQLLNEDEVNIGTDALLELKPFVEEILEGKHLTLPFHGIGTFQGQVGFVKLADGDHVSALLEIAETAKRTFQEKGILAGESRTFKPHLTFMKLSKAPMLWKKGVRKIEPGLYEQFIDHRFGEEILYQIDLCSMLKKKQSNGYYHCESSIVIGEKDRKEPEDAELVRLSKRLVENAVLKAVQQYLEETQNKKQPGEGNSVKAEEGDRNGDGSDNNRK
T1 sequence (Q6JP77 whole entry): as above
T1 sequence (P13861 whole entry): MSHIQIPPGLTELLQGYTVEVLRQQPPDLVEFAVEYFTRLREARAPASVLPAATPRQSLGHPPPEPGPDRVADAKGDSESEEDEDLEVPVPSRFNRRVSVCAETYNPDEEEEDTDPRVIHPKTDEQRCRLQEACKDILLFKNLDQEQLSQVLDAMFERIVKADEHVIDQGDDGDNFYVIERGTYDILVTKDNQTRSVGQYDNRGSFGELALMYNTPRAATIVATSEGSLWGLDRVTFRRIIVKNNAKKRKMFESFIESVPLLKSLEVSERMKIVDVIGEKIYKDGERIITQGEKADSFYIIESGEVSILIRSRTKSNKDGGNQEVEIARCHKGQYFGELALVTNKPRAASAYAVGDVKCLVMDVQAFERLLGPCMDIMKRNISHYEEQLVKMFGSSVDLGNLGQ
T3 sequence (P12368 2-401): as the sequence (P12368 2-401) above
T3 sequence (Q6JP77 whole entry): as the sequence (Q6JP77 whole entry) above
T2 sequence (Q6JP77 whole entry): as above
T2 sequence (P12368 whole entry): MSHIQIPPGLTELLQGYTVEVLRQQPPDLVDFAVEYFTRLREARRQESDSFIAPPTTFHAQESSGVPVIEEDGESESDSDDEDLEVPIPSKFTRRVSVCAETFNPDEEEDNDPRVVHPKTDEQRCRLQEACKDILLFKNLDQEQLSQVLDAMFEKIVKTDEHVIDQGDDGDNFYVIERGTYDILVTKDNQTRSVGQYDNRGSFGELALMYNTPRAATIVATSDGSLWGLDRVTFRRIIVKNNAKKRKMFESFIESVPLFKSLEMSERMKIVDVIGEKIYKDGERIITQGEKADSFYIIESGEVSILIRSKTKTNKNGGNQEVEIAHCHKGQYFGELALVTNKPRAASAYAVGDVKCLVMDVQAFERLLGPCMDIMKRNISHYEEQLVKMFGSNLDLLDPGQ

On to `CC(C)C[C@H](NC(=O)[C@H](CCCNC(=N)N)NC(=O)[C@@H](NC(=O)[C@H](CC(C)C)NC(=O)[C@H](CCC(=O)O)NC(=O)[C@H](C)NC(=O)[C@H](CC(=O)O)NC(=O)[C@H](CCC(=O)O)NC(=O)[C@@H]1CCCN1)C(C)C)C(=O)N[C@@H](CO)C(=O)N[C@@H](CCCCN)C(=O)N[C@@H](CCCNC(=N)N)C(=O)N[C@@H](CC(C)C)C(=O)N[C@H](C(=O)N[C@@H](CCC(=O)O)C(=O)N[C@@H](CC(N)=O)C(=O)N[C@@H](C)C(=O)N[C@H](C(=O)N[C@@H](CCC(=O)O)C(=O)N[C@@H](CCCCN)C(=O)N[C@@H](C)C(=O)N[C@H](C(=O)N[C@@H](CCC(N)=O)C(=O)N[C@@H](CCC(N)=O)C(=O)N[C@@H](Cc1ccc(O)cc1)C(N)=O)C(C)C)C(C)C)C(C)C` [Compound L314E, reference compound], for which the “Concentration dependence of the inhibitory effect in validation (dilution series)” value in assay [1] (validation, FIG. 15, 50 nM GST-AKAP18delta) is listed as “inhibition of binding in a concentration-dependent fashion”. Moreover, in assay [2], the “Inhibition of GST-AKAP18delta binding to RIIalpha by peptides” value was “stronger inhibition of binding; also recorded: competitive inhibition of binding”.

Consider `N=C(N)SCc1cccc2ccccc12` [Compound 990], for which, in assay [3], the “Effect on AVP-induced redistribution of AQP2” value (“Effect … of AQP2” for short) was “prevents the AVP-induced redistribution of AQP2”. For the same molecule, the “Inhibition of AKAP18delta-RIIalpha interaction in IMCD cells” value in assay [4] is given as “inhibits the interaction”. The “Inhibition of AKAP18delta-RIIalpha interaction in myocardial cells” value in assay [5] was “no influence”.

`Nc1cc(Cc2ccc(O)c(N)c2)ccc1O` [Compound 18882]: the “Effect … of AQP2” value in assay [3] is “no influence”. The “Effect on L-type Ca2+ channel currents” value in assay [6] was “Inhibition of L-type Ca^2+ channel currents”. Besides, the “Inhibition of AKAP18delta-RIIalpha interaction in myocardial cells” value in assay [5] is on record as “inhibits the interaction”.

In the case of `C/N=C(/NC1=NCCS1)SCc1cccc2ccccc12` [SM65], the “Effect … of AQP2” value in assay [3] was “no influence”. In assay [1], the “Ratio IC50 (comp./990) in Screening no. 2” value is reported as 0.14 and the “Ratio IC50 (comp./990) in Screening no. 3” value came to 0.39.

As to `CN/C(=N\Cc1cccc2ccccc12)SCc1cccc2ccccc12` [SM61], the “Effect … of AQP2” value in assay [3] was “inhibits the AVP-induced redistribution of AQP2”. Also, in assay [1], the “Ratio IC50 (comp./990) in Screening no. 2” value turned out to be 0.16 and the “Ratio IC50 (comp./990) in Screening no. 3” value is given as 0.32.
